Consider 6 molecules from patent US20230348421A1, “5-HT2A RECEPTOR INHIBITOR OR INVERSE AGONIST, PREPARATION METHOD THEREFOR, AND APPLICATION THEREOF” (GENEORA PHARMA (SHIJIAZHUANG) CO., LTD., priority 2020, published 2023).

As usually defined, the IC50 is the concentration that gives 50% inhibition. Broadly, the AUC(0-t) is the area under the concentration-time curve up to a stated or last time point. Lower therefore signals less exposure. As usually defined, the Cmax is the maximum level reached in the sampled fluid or tissue. The term MRT last denotes a mean duration of stay, worked out from the concentration-time curve. A word on the Tmax: it is the time from dosing to the highest level. The half-life is the time in which the quantity being followed falls by half. The low end stands for fast loss, the high end for slow loss.

Data set [1] addresses T1, 5-HT2A receptor (Homo sapiens (Human), UniProt P28223). Put plainly: Screening for 5-HT2A inverse agonistic activity (NIH3T3-5-HT2A R cells, Bright-Glo luciferase, 120 h). The class given is cell-based. To be noted: NIH3T3-5HT2AR cells, cell inhibition rate. The method, then: • Cell lines: Adherent cells NIH3T3-5-HT2A R • Cell culture medium: DMEM+10% FBS (purchased from GBICO) • Cell culture plate: White-wall clear-bottom 96-well plate (purchased from Perkin Elmer) • Detection kit: Bright-Glo™ Luciferase (purchased from Promega) • Detection instrument: BioTek multifunctional microplate reader
NIH3T3-5HT2AR cells in the logarithmic growth phase were seeded into a white-wall clear-bottom 96-well plate at a density of 1000 cells per well, and cultured overnight in a 37° C., 5% CO2 incubator. […] On the sixth day, a Bright-Glo™ Luciferase reagent with a volume equal to that of cell sap was added to the cells, and the cells were incubated at room temperature in the dark for 20 min. […] The data was processed with GraphPad Prism 7.0 to obtain a cell inhibition rate curve, and the IC50 was calculated.
Cell inhibition rate (%)=[100−(Lum test drug−Lum culture solution)/(Lum cell control−Lum culture solution)×100]%

Data set [2] in a line: In-vitro stability in human liver microsomes. The note with it: for Remaining amount 60 min later: Human liver microsomes 0.5 mg/mL, 1 μM, NADPH 1 mM. The class given is in vitro ADME. The method, then: (§1) • 1) formulation of test sample working solution: the test sample was diluted to 100 μM with methanol; • 2) formulation of liver microsome working solution: liver microsomes were diluted to 0.56 mg/ml with a 100 mM phosphate buffer; • 3) formulation of reduced nicotinamide adenine dinucleotide phosphate (NADPH) working solution: an appropriate amount of NADPH was weighted and diluted to 20 mM with a phosphate buffer, and then a 60 mM MgCl2 solution with the equal volume was added; • 4) formulation of stop solution: tolbutamide was diluted to 20 ng/mL with acetonitrile to serve as a stop solution containing an internal standard.
(§2) The remaining percentage of the test sample was tested 60 min later.
A general note: Liver microsomes are vesicles of endoplasmic reticulum, rich in cytochrome P450 enzymes.

Data set [3] in a line: In-vitro stability in dog liver microsomes. To be noted: for Remaining amount 60 min later: Dog liver microsomes 0.5 mg/mL, 1 μM, NADPH 1 mM. The class given is in vitro ADME. The method, then: as §1, §2
The next data set has as its target hERG potassium channels (Homo sapiens (Human), UniProt Q12809). Description: hERG inhibitory activity, whole-cell patch clamp in CHO-hERG cells. To be noted: read-out: hERG inhibitory activity IC50; CHO-hERG cells, whole-cell patch clamp, tail current at -50 mV. In general terms: The hERG channel carries a current that helps repolarise heart muscle cells.
Data set [4] addresses T1, 5-HT2A receptor. Description: Test for 5-HT2A antagonistic activity (calcium ion antagonism, FLIPR, CHO-K1/5-HT2A cells). The class given is cell-based. The note with it: 100 nM a-methyl-5-HT, Ca2+ signal. The method, then: • Cell lines: CHO-K1/5-HT2A (Chempartner) • Cell culture medium: DMEM/F12+10% FBS (purchased from GBICO) • Cell culture plate: 384-well Assay Plate (purchased from Corning) • Detection kit: FLIPR® Calcium 4 Assay Kit (purchased from Molecular Devices)
After that, centrifugation was performed to remove the culture medium in the cell culture plate. Dye was added, and the cells were incubated in a 37° C., 5% CO2 incubator for another 1 h. The cell culture plate was placed on the FLIPR. A compound to be tested was added, and the Ca^2+ signal was detected, wherein the compound to be tested was subjected to 3-fold gradient dilution with PBS to obtain 10 concentrations, with the highest concentration of 10 uM, and double replicate wells were set up. […] In order to determine the test stability, risperidone was used as a positive control. The data were processed with GraphPad Prism 7.0 to obtain a cell inhibition rate curve, and the IC50 was calculated.
Inhibition rate (%)=100%−[(signal value of the compound to be tested−signal value of the test solution)/(the maximum signal value−the signal value of the test solution)]×100%

The nature of data set [5]: In-vivo pharmacokinetic test in rats after intragastric administration. The note with it: SD rats; for AUC(0-t) / Cmax / MRT last / Tmax / half-life: rat, po, 46.7 umol/kg, 20% Solutol, plasma. The procedure: Blood was collected before administration and 0.25 h, 0.5 h, 1 h, 2 h, 3 h, 4 h, 6 h, 8 h, 12 h and 24 h after administration, respectively and placed in a heparinized EP tube, and the plasma was centrifugally separated. After the plasma was pre-treated, the concentrations of compounds in the plasma were determined by LC-MS/MS, and the pharmacokinetic parameters were calculated.

T1 sequence (P28223 whole entry): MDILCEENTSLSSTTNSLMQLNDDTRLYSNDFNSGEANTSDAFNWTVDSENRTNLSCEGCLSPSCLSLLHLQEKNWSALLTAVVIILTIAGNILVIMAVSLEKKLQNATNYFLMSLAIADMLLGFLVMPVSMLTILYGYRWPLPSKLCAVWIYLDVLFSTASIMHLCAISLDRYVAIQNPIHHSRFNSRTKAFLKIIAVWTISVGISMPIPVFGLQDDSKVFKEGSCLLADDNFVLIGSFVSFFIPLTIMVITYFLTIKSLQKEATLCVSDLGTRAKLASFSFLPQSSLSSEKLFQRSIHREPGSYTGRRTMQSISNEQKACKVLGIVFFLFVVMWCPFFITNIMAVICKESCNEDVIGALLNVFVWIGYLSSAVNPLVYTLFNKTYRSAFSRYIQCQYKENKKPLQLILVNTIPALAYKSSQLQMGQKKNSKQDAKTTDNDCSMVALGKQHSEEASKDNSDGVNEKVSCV
Sequence of hERG potassium channels (Q12809 whole entry): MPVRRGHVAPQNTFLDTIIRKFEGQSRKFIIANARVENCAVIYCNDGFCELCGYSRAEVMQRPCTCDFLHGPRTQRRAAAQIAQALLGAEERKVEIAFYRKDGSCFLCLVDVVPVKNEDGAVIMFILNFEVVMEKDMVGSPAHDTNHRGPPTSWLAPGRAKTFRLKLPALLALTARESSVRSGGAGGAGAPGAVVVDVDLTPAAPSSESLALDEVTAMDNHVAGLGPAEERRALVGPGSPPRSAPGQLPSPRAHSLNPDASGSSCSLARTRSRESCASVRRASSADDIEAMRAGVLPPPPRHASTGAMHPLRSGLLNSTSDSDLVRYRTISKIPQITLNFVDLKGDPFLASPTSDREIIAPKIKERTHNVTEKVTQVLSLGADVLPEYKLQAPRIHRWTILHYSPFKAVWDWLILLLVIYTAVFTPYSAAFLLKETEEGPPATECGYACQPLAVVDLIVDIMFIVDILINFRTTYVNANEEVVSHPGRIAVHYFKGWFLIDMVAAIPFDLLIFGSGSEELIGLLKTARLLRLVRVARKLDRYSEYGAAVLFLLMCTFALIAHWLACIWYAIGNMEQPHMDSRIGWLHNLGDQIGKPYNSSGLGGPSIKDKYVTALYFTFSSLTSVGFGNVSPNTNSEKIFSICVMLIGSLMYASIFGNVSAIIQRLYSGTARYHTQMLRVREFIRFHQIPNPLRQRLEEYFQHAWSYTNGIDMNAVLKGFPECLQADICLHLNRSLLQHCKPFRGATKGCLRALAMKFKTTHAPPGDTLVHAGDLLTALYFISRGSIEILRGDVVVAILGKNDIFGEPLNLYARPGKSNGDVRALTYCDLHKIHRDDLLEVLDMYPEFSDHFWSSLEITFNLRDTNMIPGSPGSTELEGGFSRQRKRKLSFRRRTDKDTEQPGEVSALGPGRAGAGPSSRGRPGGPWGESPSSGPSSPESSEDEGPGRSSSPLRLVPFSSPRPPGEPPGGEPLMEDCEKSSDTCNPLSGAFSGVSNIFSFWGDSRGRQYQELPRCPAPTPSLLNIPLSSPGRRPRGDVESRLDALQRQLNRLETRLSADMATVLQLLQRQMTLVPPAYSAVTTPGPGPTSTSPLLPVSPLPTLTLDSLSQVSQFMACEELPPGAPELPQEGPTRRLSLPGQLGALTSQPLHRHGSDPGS
Protocol for hERG potassium channels: • Name: Dimethyl sulfoxide (DMSO)
• Species & strains: CHO-hERG cell lines (Chinese hamster ovary cells stably expressing hERG channels) • Culture medium: 90% F12, 10% fetal bovine serum, 100 μg/mL G418 and 100 μg/mL hygromycin B • Culture conditions: 5% CO2, 37° C. incubator • Freezing conditions: Liquid nitrogen
Digestion was performed at room temperature for 3-5 min. The digestion solution was pipetted, and the cells were resuspended in extracellular fluid and transferred to an experimental dish for electrophysiological recording for later use.
On the day of the test, the compound was diluted with DMSO to an intermediate concentration. 10 μL of compound with the intermediate concentration was taken, transferred to 4990 μL of extracellular fluid, and subjected to 500-fold dilution to obtain a final concentration to be tested.
CHO (Chinese Hamster Ovary) cells stably expressing hERG potassium channels were taken, and hERG potassium channel currents were recorded at room temperature by means of a whole-cell patch-clamp technique. A glass microelectrode was formed by pulling a glass electrode blank (BF150-86-10, Sutter) with a glass microelectrode puller. The tip resistance was about 2-5 MΩ after perfusion of a pippette solution. The glass microelectrode could be connected to a patch clamp amplifier by inserting the glass microelectrode into an amplifier probe. Clamping voltages and data recording were controlled and recorded by a computer with pClamp 10 software, with a sampling frequency of 10 kHz and a filtering frequency of 2 kHz. After the whole-cell recording was obtained, the cells were clamped at −80 mV, and the step voltage evoking hERG potassium current (I hERG) was changed from −80 mV to +20 mV by giving a 2 s depolarization voltage and then repolarized to −50 mV for 1 s, and returned to −80 mV. Such voltage stimulation was given every 10 s, and the administration process was started after it was determined that the hERG potassium currents were stable (1 min). The compound at each test concentration was given at least 1 min, and at least 2 cells (n≥2) were tested for each concentration.
Data analysis was performed by means of pClamp 10 and GraphPad Prism 5.0 software.
The formula for calculating the degree of inhibition of different compound concentrations on hERG potassium currents (the hERG tail current peak value evoked at −50 mV) was:
Y=Bottom+(Top−Bottom)/(1+10^((LogIC50−X)*HillSlope))
wherein X is a Log value of a test concentration of a test sample, Y is the inhibition percentage at a corresponding concentration, and Bottom and Top are the minimum inhibition percentage and the maximum inhibition percentage, respectively.

`CN1CCC(N(Cc2ccc(F)cn2)C(=O)NCc2ccc(OCC(F)(F)F)cc2)CC1` [Compound 59] returned an IC50 at 5-HT2A receptor [1] of 2.04 nM. In addition, the “Remaining amount 60 min later” value in data set [2] is 89.19%. In addition, in data set [2] (human liver microsomes in vitro), the “Stability compared with pimavanserin” value was “obviously superior stability to that of pimavanserin”. For the same molecule, the “Remaining amount 60 min later” value in data set [3] turned out to be 76.37%. Also, the “Stability compared with pimavanserin” value in data set [3] (dog liver microsomes in vitro) was “obviously superior stability to that of pimavanserin”. The IC50 at hERG potassium channels turned out to be 810 nM. Also, the IC50 at 5-HT2A receptor [4] amounted to 0.54 nM. Besides, in data set [5] (46.7 μmol/kg), the “AUClast relative to pimavanserin” value was 4 times, the “Cmax relative to pimavanserin” value is on record as 2 times and the “T1/2 compared with pimavanserin” value is “higher than that of pimavanserin”. Besides, in data set [5], the AUC(0-t) was found to be 17 ± 2.97 µM·h, the Cmax came to 1140 ± 365 nM, the MRT last was 8.66 ± 0.89 h and the Tmax came out at 5.88 ± 5.14 h. In data set [5], this molecule showed a half-life of 5.51 ± 1.33 h.

As for `CN1CCC(N(Cc2ccc(F)cn2)C(=O)NCc2ccc(OCC(F)F)cc2)CC1` [Compound 78], the 50% inhibitory concentration (IC50) is 6.01 nM on 5-HT2A receptor [1], 1740 nM on hERG potassium channels and 2.17 nM on 5-HT2A receptor [4].

As for `CN1CCC(N(Cc2ncc(F)cc2F)C(=O)NCc2ccc(OC(C)(C)C)cc2)CC1` [Compound 81], the IC50 on 5-HT2A receptor [1] amounted to 30.1 nM; at hERG potassium channels, 680 nM; at 5-HT2A receptor [4], 2.78 nM.

For the molecule `CN1CCC(N(Cc2ccc(F)cn2)C(=O)NCc2ccc(OCCCC(F)(F)F)cc2)CC1` [Compound 82], the IC50 at 5-HT2A receptor [1] turned out to be 1.95 nM; on hERG potassium channels, 500 nM; at 5-HT2A receptor [4], 3.78 nM.

For `CN1CCC(N(Cc2ccc(F)cn2)C(=O)NCc2ccc3c(c2)C=CC(C)(C)O3)CC1` [Compound 99], the IC50 on 5-HT2A receptor [1] came out at 33.3 nM; at hERG potassium channels it was 650 nM; on 5-HT2A receptor [4], 17.3 nM.

In the case of `CC(C)COc1ccc(CNC(=O)N(Cc2ccc(F)cc2)C2CCN(C)CC2)cc1` [Pimavanserin, reference compound], in data set [2], the “Remaining amount 60 min later” value amounted to 77.44%. Besides, in data set [3], the “Remaining amount 60 min later” value stood at 29.72%. In data set [5], the AUC(0-t) was determined as 4.29 ± 1.66 µM·h, the Cmax turned out to be 536 ± 260 nM, the MRT last came out at 5.61 ± 0.34 h and the Tmax came out at 2.75 ± 1.26 h. In data set [5], this molecule showed a half-life of 2.38 ± 0.8 h.
